Measured values from article PMC4824452, “Substrate complexes of human dipeptidyl peptidase III reveal the mechanism of enzyme inhibition” (Scientific Reports, 2016).

Legend:
rat DPP III = test system: rat DPP III; set-up: method as in PMID 12895665; conditions: cited from earlier work
human DPP III = conditions: cited from earlier work
hDPP III [1] = test system: hDPP III; set-up: method as in 2 sources, ref 22 = [22]; PMID 10822105; doi:10.1016/s0196-9781(00)00174-1; Yamamoto Y. , Hashimoto J. , Shimamura M. , Yamaguchi T. & Hazato T. Characterization of tynorphin, a potent endogenous inhibitor of dipeptidyl peptidaseIII . Peptides 21 , 503 – 508 ( 2000 ). 1082210 ||| ref 1 = [1]; PMID 21794094; doi:10.1111/j.1742-4658.2011.08275.x; Prajapati S. C. & Chauhan S. S. Dipeptidyl peptidase III: a multifaceted oligopeptide N-end cutter . FEBS J. 278 , 3256 – 3276 ( 2011 ). 21794094 10.1111/j.1742-4658.2011.08275.x; conditions: cited from earlier work
hDPP III [2] = conditions: cited from earlier work
Excerpt: The octapeptide angiotensin-II (DRVYIHPF) is a potent vasoconstrictor and is involved in regulating mammalian blood pressure.

[3] = test system: partially purified DPP III from monkey brain; set-up: method as in PMID 10822105; conditions: cited from earlier work
[4] = target: T1, hDPP III, wild-type enzyme (Homo sapiens, UniProt Q9NY33); assay: Fluorometric activity assay, release of β-naphthylamine, wild-type enzyme; assay type: biochemical; conditions: wild-type enzyme 20 pM; substrate 1 μM to 200 μM; 37 °C, 50 mM Tris-HCl pH 8.0, 100 mM NaCl; fluorescence ex 320 nm, em 420 nm
T1 sequence (Q9NY33 1-737): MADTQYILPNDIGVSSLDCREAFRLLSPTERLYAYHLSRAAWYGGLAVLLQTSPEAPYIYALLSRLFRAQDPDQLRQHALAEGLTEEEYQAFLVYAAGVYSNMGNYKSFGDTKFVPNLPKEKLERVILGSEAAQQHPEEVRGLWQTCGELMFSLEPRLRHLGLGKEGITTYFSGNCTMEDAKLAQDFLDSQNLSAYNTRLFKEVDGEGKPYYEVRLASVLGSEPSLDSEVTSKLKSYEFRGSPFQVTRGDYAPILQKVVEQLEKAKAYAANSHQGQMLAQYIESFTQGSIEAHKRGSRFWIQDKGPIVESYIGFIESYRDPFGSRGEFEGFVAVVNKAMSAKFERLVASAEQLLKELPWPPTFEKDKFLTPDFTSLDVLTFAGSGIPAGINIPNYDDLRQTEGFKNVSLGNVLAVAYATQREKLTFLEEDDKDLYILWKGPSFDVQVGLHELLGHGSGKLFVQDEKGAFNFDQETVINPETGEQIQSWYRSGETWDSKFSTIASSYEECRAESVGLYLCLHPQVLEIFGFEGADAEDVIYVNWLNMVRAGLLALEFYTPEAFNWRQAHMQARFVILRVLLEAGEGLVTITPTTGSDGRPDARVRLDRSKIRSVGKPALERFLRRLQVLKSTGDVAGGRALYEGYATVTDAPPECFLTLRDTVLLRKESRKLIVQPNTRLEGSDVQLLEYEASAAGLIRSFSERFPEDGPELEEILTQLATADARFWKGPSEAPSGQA
Experimental: (§1) The enzymatic activities of the wild-type enzyme and the active smFRET construct (still containing residue Glu-451) were determined using a fluorometric assay, which measures the release of β-naphthylamine upon cleavage of the synthetic substrate Arg-Arg-β-naphthylamide (excitation at 320 nm and emission at 420 nm)[41]. Kinetic parameters were determined at 37 °C in 50mM Tris-HCl buffer pH 8.0, containing 100 mM NaCl. The protein concentrations were 20 pM (wild-type enzyme) and 50 pM (smFRET construct). The substrate concentration was varied from 1 μM to 200 μM. The initial rate of fluorescence increase was monitored continuously for 5 min and was converted into the velocity of the reaction using a calibration curve for β-naphthylamine. Non-linear regression using the program GraphPad Prism (www.graphpad.com) yielded the values for vmax and KM.

[5] = target: T2, active smFRET construct of hDPP III (still containing residue Glu-451) (Homo sapiens, UniProt Q9NY33, C19S/C519S/C654S/E207C/S491C); assay: Fluorometric activity assay, release of β-naphthylamine, active smFRET construct; assay type: biochemical; conditions: active smFRET construct 50 pM; substrate 1 μM to 200 μM; 37 °C, 50 mM Tris-HCl pH 8.0, 100 mM NaCl; fluorescence ex 320 nm, em 420 nm
T2 construct: His6-tag with TEV protease cleavage site (N, cleaved yes); made in house; host or cells: E. coli BL21-CodonPlus (DE3) RIL
T2 sequence (Q9NY33 1-726 C19S/E207C/S491C/C519S/C654S limits assumed): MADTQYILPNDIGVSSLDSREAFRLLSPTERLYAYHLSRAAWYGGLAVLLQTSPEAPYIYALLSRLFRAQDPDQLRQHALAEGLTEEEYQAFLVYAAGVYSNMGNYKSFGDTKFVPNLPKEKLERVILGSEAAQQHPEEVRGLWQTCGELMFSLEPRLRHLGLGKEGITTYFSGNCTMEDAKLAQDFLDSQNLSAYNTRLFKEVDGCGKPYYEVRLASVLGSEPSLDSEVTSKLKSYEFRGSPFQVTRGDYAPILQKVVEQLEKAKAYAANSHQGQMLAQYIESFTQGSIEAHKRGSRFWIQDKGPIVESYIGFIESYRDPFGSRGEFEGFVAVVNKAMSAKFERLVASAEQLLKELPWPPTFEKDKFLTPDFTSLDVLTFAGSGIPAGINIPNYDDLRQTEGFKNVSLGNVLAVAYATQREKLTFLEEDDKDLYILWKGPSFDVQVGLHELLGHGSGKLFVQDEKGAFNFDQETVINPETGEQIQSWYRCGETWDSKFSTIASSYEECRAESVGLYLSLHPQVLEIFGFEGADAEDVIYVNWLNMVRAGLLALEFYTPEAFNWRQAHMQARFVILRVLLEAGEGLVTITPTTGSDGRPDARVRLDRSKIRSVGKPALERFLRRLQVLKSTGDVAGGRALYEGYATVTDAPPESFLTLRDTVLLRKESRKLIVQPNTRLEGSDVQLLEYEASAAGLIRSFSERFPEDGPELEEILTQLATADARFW
Experimental: as §1

inactive hDPP3 variant = target: inactive hDPP3 variant; set-up: method as in PMID 22493238; conditions: cited from earlier work
[6] = target: hDPP3(1-726) E451A, inactive hDPP III variant used for ITC (human) (UniProt Q9NY33); assay: ITC; 800 μM angiotensin II in the syringe into 40 μM enzyme in the cell; 25 °C; 50 mM Tris-HCl pH 8.0, 100 mM NaCl; one-binding-site model
[7] = target: T3, human dipeptidyl peptidase III (1-726), inactive E451A variant, smFRET construct (C19S, C519S, C654S, E207C, … (human, UniProt Q9NY33 1-726, E451A | C19 exchanged to serine | C519 exchanged to serine | C654 exchanged to …)); assay: crystal structure; co-crystallisation; protein 8 mg mL^-1, protein:ligand about 1:30, sitting drop vapour diffusion at 20 °C, microseeding with crystals of the angiotensin II complex; conditions: both partners purified
T3 construct: human dipeptidyl peptidase III, residues 1-726 (lacks 11 C-terminal residues), with E451A and five surface exchanges made for smFRET; Vector pET28-MHL; His6-tag removed with TEV protease, so residues of the cleavage site may remain at the N-terminus; also called hDPP III; hDPP3; source: E. coli BL21-CodonPlus (DE3) RIL, purified (Ni-NTA, ResourceQ anion exchange, TEV cleavage, Superdex 200); not …
T3 sequence (looked up): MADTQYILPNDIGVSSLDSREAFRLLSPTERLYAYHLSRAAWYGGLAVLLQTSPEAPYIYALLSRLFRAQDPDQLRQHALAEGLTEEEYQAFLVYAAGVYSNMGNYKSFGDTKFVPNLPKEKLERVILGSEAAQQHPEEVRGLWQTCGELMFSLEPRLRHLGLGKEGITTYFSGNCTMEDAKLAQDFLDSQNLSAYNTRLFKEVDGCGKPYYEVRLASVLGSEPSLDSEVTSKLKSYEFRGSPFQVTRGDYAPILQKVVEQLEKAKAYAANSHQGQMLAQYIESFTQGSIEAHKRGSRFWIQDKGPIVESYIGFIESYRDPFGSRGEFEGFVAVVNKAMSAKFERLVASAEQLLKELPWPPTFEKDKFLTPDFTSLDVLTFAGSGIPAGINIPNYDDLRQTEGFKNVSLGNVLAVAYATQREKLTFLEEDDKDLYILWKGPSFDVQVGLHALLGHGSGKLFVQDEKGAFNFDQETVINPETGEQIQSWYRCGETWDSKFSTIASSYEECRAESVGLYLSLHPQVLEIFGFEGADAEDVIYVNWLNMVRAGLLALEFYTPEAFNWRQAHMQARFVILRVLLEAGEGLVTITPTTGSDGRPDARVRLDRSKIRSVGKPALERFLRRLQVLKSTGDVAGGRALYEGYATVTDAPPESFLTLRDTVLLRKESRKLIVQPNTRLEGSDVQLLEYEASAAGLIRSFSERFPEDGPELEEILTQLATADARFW

**Q.** For IVYPW, which “relative inhibitory strength (in words)” value (rat DPP III; compared with tynorphin, presumably ref 23) is on record?
**A.** a stronger inhibitor than tynorphin

**Q.** What about the “inhibition (in words)” value (rat DPP III; rat DPP III) of the same molecule?
**A.** nanomolar affinity

**Q.** And the “inhibition of the enzyme (in words)” value (human DPP III)?
**A.** described as an inhibitor of the enzyme

**Q.** For “YGGFM [Met-enkephalin, endogenous opioid neurotransmitter (YGGFM)]”, which “cleavage by hDPP III (in words)” value (hDPP III [1]) is on record?
**A.** shown to be cleaved by hDPP III

**Q.** What about the “in vitro substrate of hDPP III (in words)” value (“in vitro substrate” for short) (hDPP III [1]) of the same molecule?
**A.** known in vitro substrates of hDPP III

**Q.** Which “character of binding (thermodynamic, in words)” value (hDPP III [2]) does the source give for VVYPW [tynorphin] here?
**A.** endothermic process driven by entropic changes

**Q.** What about the “inhibition (in words)” value [3] of the same molecule?
**A.** shown to inhibit partially purified DPP III from monkey brain

**Q.** And the “period over which the peptide appears to be hydrolysed” value (hDPP III [1])?
**A.** about 24 hours

**Q.** And the “inhibition of human DPP III (in words)” value (human DPP III)?
**A.** described as an inhibitor of human DPP III

**Q.** Which results are given for “Arg-Arg-β-naphthylamide [synthetic substrate releasing β-naphthylamine upon cleavage]”?
**A.** Km [4]: 24 µM; kcat [4]: 24 s⁻¹; Km [5]: 30 µM; kcat [5]: 28 s⁻¹

**Q.** Which Kd (inactive hDPP3 variant) does the source give for “YGGFL [Leu-enkephalin, endogenous opioid neurotransmitter (YGGFL)]” here?
**A.** 3.6 µM

**Q.** What about the “cleavage by hDPP III (in words)” value (hDPP III [1]) of the same molecule?
**A.** shown to be cleaved by hDPP III

**Q.** And the “in vitro substrate” value (hDPP III [1])?
**A.** known in vitro substrates of hDPP III

**Q.** Which “in vitro substrate” value (hDPP III [1]) does the source give for “YPFF-NH2 [endomorphin-2, opioid peptide with amidated C-terminus]” here?
**A.** known in vitro substrates of hDPP III

**Q.** With angiotensin-II (peptide) as the molecule, how does the Kd [6] read?
**A.** 1.64 µM

**Q.** What about the dH [6] of the same molecule?
**A.** 3.64 kcal/mol

B1: Met-enkephalin (peptide)
peptide: YGGFM
notes: Met-enkephalin, endogenous opioid pentapeptide cut from proenkephalin-A; also called YGGFM
**Q.** Does B1 bind [7]?
**A.** binds

B2: Leu-enkephalin (peptide)
peptide: YGGFL
notes: Leu-enkephalin, endogenous opioid pentapeptide cut from proenkephalin-A (also held in prodynorphin); also called YGGFL
**Q.** Does B2 bind [7]?
**A.** binds

B3: synthetic opioid peptide IVYPW (peptide)
peptide: IVYPW
notes: synthetic opioid peptide, similar to tynorphin (VVYPW), a derivative of spinorphin
**Q.** Does B3 bind [7]?
**A.** binds
